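Values below derive from 48-hour exposures of cells grown in 96-well plates, with endpoints linearly interpolated between the two concentrations bracketing the appropriate inhibition level. At the GI50, growth is halved. Definition used: TGI = concentration required for complete inhibition of growth.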
Legend:
Assay in all cases: NCI-60 cell line screen, 48 h
HCT-116 colon = system: HCT-116 colon
SNB-19 CNS = system: SNB-19 CNS
SK-OV-3 ovarian = system: SK-OV-3 ovarian
NCI/ADR-RES ovarian = system: NCI/ADR-RES ovarian
OVCAR-3 ovarian = system: OVCAR-3 ovarian
SF-295 CNS = system: SF-295 CNS
SW-620 colon = system: SW-620 colon
SK-MEL-28 melanoma = system: SK-MEL-28 melanoma
MOLT-4 leukemia = system: MOLT-4 leukemia
EKVX NSCLC = system: EKVX NSCLC

Compound | GI50 (HCT-116 colon) | TGI (HCT-116 colon) | GI50 (SNB-19 CNS) | TGI (SNB-19 CNS) | GI50 (SK-OV-3 ovarian) | TGI (SK-OV-3 ovarian) | GI50 (NCI/ADR-RES ovarian) | TGI (NCI/ADR-RES ovarian) | GI50 (OVCAR-3 ovarian) | TGI (OVCAR-3 ovarian) | GI50 (SF-295 CNS) | TGI (SF-295 CNS) | GI50 (SW-620 colon) | TGI (SW-620 colon) | GI50 (SK-MEL-28 melanoma) | TGI (SK-MEL-28 melanoma) | GI50 (MOLT-4 leukemia) | TGI (MOLT-4 leukemia) | GI50 (EKVX NSCLC) | TGI (EKVX NSCLC)
Cc1cc(I)cc(CNCCN(C)C)c1O | > 68 µM | > 100 µM | > 100 µM | > 100 µM | > 100 µM | > 100 µM | > 84.5 µM | > 100 µM | > 86 µM | > 100 µM | 42.6 µM | > 88.1 µM | > 100 µM | > 100 µM | 28.5 µM | > 80.4 µM | 44.6 µM | > 100 µM | > 100 µM | > 100 µM
Nc1ccc(/C=C/c2ccc3ncccc3c2)cc1 | > 100 µM | > 100 µM | > 100 µM | > 100 µM | > 100 µM | > 100 µM | > 100 µM | > 100 µM | > 100 µM | > 100 µM | 70.3 µM | > 100 µM | > 100 µM | > 100 µM | > 100 µM | > 100 µM | > 100 µM | > 100 µM | 31.7 µM | > 100 µM
Sc1cccc2cccnc12 | 0.411 µM | 7.8 µM | 1.82 µM | 17.3 µM | 3.04 µM | 13.8 µM | 0.955 µM | 9.21 µM | 0.467 µM | 8.01 µM | 0.645 µM | 12.8 µM | 1.07 µM | 16.2 µM | 1.15 µM | 16.2 µM | 0.55 µM | 19.7 µM | 1.31 µM | 12.9 µM
O=[N+]([O-])c1ccc(C2=NCCO2)cc1 | > 100 µM | > 100 µM | > 100 µM | > 100 µM | > 100 µM | > 100 µM | > 100 µM | > 100 µM | > 100 µM | > 100 µM | > 100 µM | > 100 µM | > 100 µM | > 100 µM | > 100 µM | > 100 µM | > 100 µM | > 100 µM | > 100 µM | > 100 µM
O=C1NN2CC(c3ccccc3)=NN=C2c2ccccc21 | 17.4 µM | 36.7 µM | 20.5 µM | 44.7 µM | 24.2 µM | 51 µM | 17.5 µM | 42.7 µM | 20.1 µM | 48.2 µM | 32.8 µM | > 100 µM | 33 µM | > 100 µM | 28.1 µM | > 100 µM | 11.1 µM | > 100 µM | 31.3 µM | > 100 µM
C=C(CO)C(=O)OC1CC(=C)C2CC(O)C(C)C2C2OC(=O)C(=C)C12 (stereo not drawn) |  | > 100 µM |  | 61.6 µM |  | > 100 µM |  | > 100 µM |  | 34.2 µM |  | 38.8 µM |  | 92.7 µM |  | 57.6 µM |  | 64.6 µM |  | > 100 µM
CN1CCN(Cc2ccc(NC(=O)c3cncc(C#Cc4cnc(N)c5ncccc45)c3)cc2C(F)(F)F)CC1 | 0.122 µM | 1.74 µM | 2.11 µM | 11.8 µM | 0.391 µM | 9.07 µM | 0.685 µM | 3.13 µM | 0.781 µM | 4.88 µM | 0.55 µM | 15.5 µM | 0.247 µM | 1.36 µM | 0.389 µM | 1.59 µM | 0.239 µM | 5.16 µM | 0.589 µM | 15.5 µM
ClC1=C(Cl)C(Cl)(C2(Cl)C(Cl)=C(Cl)C(Cl)=C2Cl)C(Cl)=C1Cl | 0.189 µM | 0.439 µM | 1.79 µM | 3.33 µM | 2.26 µM | 4.54 µM | 0.976 µM | 5.61 µM | 0.199 µM | 0.417 µM | 2.05 µM | 4.14 µM | 0.19 µM | 0.391 µM | 0.279 µM | 0.847 µM | 0.242 µM | 2.31 µM | 1.52 µM | 3.88 µM
CNC(=O)Oc1cc(C(C)C)ccc1Sc1ccc(C(C)C)cc1OC(=O)NC | 2.68 µM | 15.2 µM | 9.57 µM | 24.4 µM | 10.5 µM | 23.7 µM | 3.9 µM | 18.6 µM | 4.39 µM | 14.7 µM |  |  | 5.01 µM | 20.1 µM | 4.99 µM | 17.9 µM | 2.96 µM | 20.1 µM | 1.59 µM | 7.14 µM
CN(C)CCNC(=O)c1cc2c3cc(Cl)ccc3[nH]c2c2ncccc12 | 1.52 µM | 4.68 µM | 4.52 µM | 19.7 µM | 6.89 µM | 24.4 µM | 5.4 µM | 20.8 µM | 11.1 µM | 29.6 µM | 22.8 µM | 59.6 µM | 1.47 µM | 3.52 µM | 2.12 µM | 4.18 µM | 1.54 µM | 4.27 µM | 2.8 µM | 12.7 µM
O=C(O)c1ccc(N(/C=C/C(=O)C(F)(F)F)Cc2ccc(Cl)cc2)cc1 | 20.5 µM | 54.8 µM | 47.9 µM | > 100 µM | 35.5 µM | > 100 µM | 23 µM | 68.4 µM | 25.8 µM | 72.5 µM | 26.6 µM | 67 µM | 35.9 µM | > 100 µM | 32.9 µM | 84 µM | 34.8 µM | > 100 µM | 19.6 µM | 47.9 µM
CC(C)(C)CC(C)(C)c1ccc(OCCO)cc1 | 3.86 µg/mL | 14.5 µg/mL | 6.58 µg/mL | 19.5 µg/mL | 11.2 µg/mL | 28.6 µg/mL | 2.61 µg/mL | 18.1 µg/mL | 2.63 µg/mL | 13.4 µg/mL | 1.07 µg/mL | 8.56 µg/mL | 7.73 µg/mL | 18.6 µg/mL | 11.4 µg/mL | 29.7 µg/mL | 3.41 µg/mL | > 75 µg/mL | 1.34 µg/mL | 30.1 µg/mL

— PubChem BioAssay (NCI)
